Measured values as given in the supplement of paper PMC8882468.

Each molecule was assayed on HCI-023 (organoid from a triple-negative breast cancer xenograft) (assay: CTG-3D luminescence at 96 h relative to day-0 seeding control (ratio to day 0); higher = more growth / less cytotoxicity; PDxO 3D drug screen (set 2), 96 h, CTG-3D normalised to day-0 seeding control.). Conditions: 12.5 pM; days in culture: 223.

Going from `CCOc1ccn(-c2ccc(F)cc2)c(=O)c1C(=O)Nc1ccc(Oc2ccnc(N)c2Cl)c(F)c1` [ASLAN002] to `O=C(c1cc(Cc2n[nH]c(=O)c3ccccc23)ccc1F)N1CCN(C(=O)C2CC2)CC1` [olaparib], the “CTG-3D luminescence at 96 h” value rises from 1.5 to 1.7.

Compared with `C[C@@H](Nc1cc(F)cc(F)c1)c1cc(C(=O)N(C)C)cc2c(=O)cc(N3CCOCC3)oc12` [AZD-8186], `CC(=O)c1c(C)c2cnc(Nc3ccc(N4CCNCC4)cn3)nc2n(C2CCCC2)c1=O` [palbociclib] is higher in “CTG-3D luminescence at 96 h” value: 1.94 for the first, 2.23 for the second.

In the case of `COc1cccc2c1C(=O)c1c(O)c3c(c(O)c1C2=O)C[C@@](O)(C(=O)CO)C[C@@H]3O[C@H]1C[C@H](N)[C@@H](O)[C@H](C)O1` [epirubicin], the “CTG-3D luminescence at 96 h” value is reported as 1.88.

Same assay, conditions: 12.5 pM; days in culture: 238

Going from `CCOc1ccn(-c2ccc(F)cc2)c(=O)c1C(=O)Nc1ccc(Oc2ccnc(N)c2Cl)c(F)c1` [ASLAN002] to `O=C(c1cc(Cc2n[nH]c(=O)c3ccccc23)ccc1F)N1CCN(C(=O)C2CC2)CC1` [olaparib], the “CTG-3D luminescence at 96 h” value falls from 1.66 to 1.45.

First: C[C@@H](Nc1cc(F)cc(F)c1)c1cc(C(=O)N(C)C)cc2c(=O)cc(N3CCOCC3)oc12 [AZD-8186]
Second: CC(=O)c1c(C)c2cnc(Nc3ccc(N4CCNCC4)cn3)nc2n(C2CCCC2)c1=O [palbociclib]
The “CTG-3D luminescence at 96 h” value of the first is higher: 1.54 for the first, 1.53 for the second.

With `COc1cccc2c1C(=O)c1c(O)c3c(c(O)c1C2=O)C[C@@](O)(C(=O)CO)C[C@@H]3O[C@H]1C[C@H](N)[C@@H](O)[C@H](C)O1` [epirubicin] the “CTG-3D luminescence at 96 h” value was 1.44.

Same assay, conditions: 12.5 pM; days in culture: 252

Compared with `CCOc1ccn(-c2ccc(F)cc2)c(=O)c1C(=O)Nc1ccc(Oc2ccnc(N)c2Cl)c(F)c1` [ASLAN002], `O=C(c1cc(Cc2n[nH]c(=O)c3ccccc23)ccc1F)N1CCN(C(=O)C2CC2)CC1` [olaparib] is higher in “CTG-3D luminescence at 96 h” value: 1.99 for the first, 2.12 for the second.

Going from `C[C@@H](Nc1cc(F)cc(F)c1)c1cc(C(=O)N(C)C)cc2c(=O)cc(N3CCOCC3)oc12` [AZD-8186] to `CC(=O)c1c(C)c2cnc(Nc3ccc(N4CCNCC4)cn3)nc2n(C2CCCC2)c1=O` [palbociclib], the “CTG-3D luminescence at 96 h” value rises from 2.12 to 2.28.

`COc1cccc2c1C(=O)c1c(O)c3c(c(O)c1C2=O)C[C@@](O)(C(=O)CO)C[C@@H]3O[C@H]1C[C@H](N)[C@@H](O)[C@H](C)O1` [epirubicin] was tested, and the “CTG-3D luminescence at 96 h” value was 2.29.

Same assay, conditions: 0.00025 µM; days in culture: 223

First: CCOc1ccn(-c2ccc(F)cc2)c(=O)c1C(=O)Nc1ccc(Oc2ccnc(N)c2Cl)c(F)c1 [ASLAN002]
Second: O=C(c1cc(Cc2n[nH]c(=O)c3ccccc23)ccc1F)N1CCN(C(=O)C2CC2)CC1 [olaparib]
The “CTG-3D luminescence at 96 h” value of the first is higher: 2.83 for the first, 2.3 for the second.

Going from `C[C@@H](Nc1cc(F)cc(F)c1)c1cc(C(=O)N(C)C)cc2c(=O)cc(N3CCOCC3)oc12` [AZD-8186] to `CC(=O)c1c(C)c2cnc(Nc3ccc(N4CCNCC4)cn3)nc2n(C2CCCC2)c1=O` [palbociclib], the “CTG-3D luminescence at 96 h” value falls from 2.6 to 2.46.

In the case of `COc1cccc2c1C(=O)c1c(O)c3c(c(O)c1C2=O)C[C@@](O)(C(=O)CO)C[C@@H]3O[C@H]1C[C@H](N)[C@@H](O)[C@H](C)O1` [epirubicin], the “CTG-3D luminescence at 96 h” value is reported as 1.76.

Same assay, conditions: 0.00025 µM; days in culture: 238

Compared with `CCOc1ccn(-c2ccc(F)cc2)c(=O)c1C(=O)Nc1ccc(Oc2ccnc(N)c2Cl)c(F)c1` [ASLAN002], `O=C(c1cc(Cc2n[nH]c(=O)c3ccccc23)ccc1F)N1CCN(C(=O)C2CC2)CC1` [olaparib] is lower in “CTG-3D luminescence at 96 h” value: 1.62 for the first, 1.31 for the second.

Compared with `C[C@@H](Nc1cc(F)cc(F)c1)c1cc(C(=O)N(C)C)cc2c(=O)cc(N3CCOCC3)oc12` [AZD-8186], `CC(=O)c1c(C)c2cnc(Nc3ccc(N4CCNCC4)cn3)nc2n(C2CCCC2)c1=O` [palbociclib] is lower in “CTG-3D luminescence at 96 h” value: 1.51 for the first, 1.27 for the second.

With `COc1cccc2c1C(=O)c1c(O)c3c(c(O)c1C2=O)C[C@@](O)(C(=O)CO)C[C@@H]3O[C@H]1C[C@H](N)[C@@H](O)[C@H](C)O1` [epirubicin] the “CTG-3D luminescence at 96 h” value was 1.08.

Same assay, conditions: 0.00025 µM; days in culture: 252

Going from `CCOc1ccn(-c2ccc(F)cc2)c(=O)c1C(=O)Nc1ccc(Oc2ccnc(N)c2Cl)c(F)c1` [ASLAN002] to `O=C(c1cc(Cc2n[nH]c(=O)c3ccccc23)ccc1F)N1CCN(C(=O)C2CC2)CC1` [olaparib], the “CTG-3D luminescence at 96 h” value falls from 1.93 to 1.81.

Going from `C[C@@H](Nc1cc(F)cc(F)c1)c1cc(C(=O)N(C)C)cc2c(=O)cc(N3CCOCC3)oc12` [AZD-8186] to `CC(=O)c1c(C)c2cnc(Nc3ccc(N4CCNCC4)cn3)nc2n(C2CCCC2)c1=O` [palbociclib], the “CTG-3D luminescence at 96 h” value rises from 1.88 to 1.93.

`COc1cccc2c1C(=O)c1c(O)c3c(c(O)c1C2=O)C[C@@](O)(C(=O)CO)C[C@@H]3O[C@H]1C[C@H](N)[C@@H](O)[C@H](C)O1` [epirubicin] was tested, and the “CTG-3D luminescence at 96 h” value was 2.32.

Same assay, conditions: 0.005 µM; days in culture: 223

Compared with `CCOc1ccn(-c2ccc(F)cc2)c(=O)c1C(=O)Nc1ccc(Oc2ccnc(N)c2Cl)c(F)c1` [ASLAN002], `O=C(c1cc(Cc2n[nH]c(=O)c3ccccc23)ccc1F)N1CCN(C(=O)C2CC2)CC1` [olaparib] is higher in “CTG-3D luminescence at 96 h” value: 1.7 for the first, 1.79 for the second.

Going from `C[C@@H](Nc1cc(F)cc(F)c1)c1cc(C(=O)N(C)C)cc2c(=O)cc(N3CCOCC3)oc12` [AZD-8186] to `CC(=O)c1c(C)c2cnc(Nc3ccc(N4CCNCC4)cn3)nc2n(C2CCCC2)c1=O` [palbociclib], the “CTG-3D luminescence at 96 h” value falls from 1.75 to 1.71.

In the case of `COc1cccc2c1C(=O)c1c(O)c3c(c(O)c1C2=O)C[C@@](O)(C(=O)CO)C[C@@H]3O[C@H]1C[C@H](N)[C@@H](O)[C@H](C)O1` [epirubicin], the “CTG-3D luminescence at 96 h” value is reported as 1.22.

Same assay, conditions: 0.005 µM; days in culture: 238

First: CCOc1ccn(-c2ccc(F)cc2)c(=O)c1C(=O)Nc1ccc(Oc2ccnc(N)c2Cl)c(F)c1 [ASLAN002]
Second: O=C(c1cc(Cc2n[nH]c(=O)c3ccccc23)ccc1F)N1CCN(C(=O)C2CC2)CC1 [olaparib]
The “CTG-3D luminescence at 96 h” value of the first is lower: 1.17 for the first, 1.45 for the second.

First: C[C@@H](Nc1cc(F)cc(F)c1)c1cc(C(=O)N(C)C)cc2c(=O)cc(N3CCOCC3)oc12 [AZD-8186]
Second: CC(=O)c1c(C)c2cnc(Nc3ccc(N4CCNCC4)cn3)nc2n(C2CCCC2)c1=O [palbociclib]
The “CTG-3D luminescence at 96 h” value of the first is lower: 1.31 for the first, 1.67 for the second.

For `COc1cccc2c1C(=O)c1c(O)c3c(c(O)c1C2=O)C[C@@](O)(C(=O)CO)C[C@@H]3O[C@H]1C[C@H](N)[C@@H](O)[C@H](C)O1` [epirubicin], the “CTG-3D luminescence at 96 h” value was 0.842.
